Results taken from publication PMC6694155, “PTPσ inhibitors promote hematopoietic stem cell regeneration” (Nature Communications, 2019).
Where “and” joins values, the source holds several entries; their conditions need not be identical. Identical values can stand only once.

Tests used:
BM KSL cells [1] = assay: CFC assay from 300 cGy-irradiated BM KSL cells, 3 day culture; type: cell-based, mouse; set-up: CFU-GM / BFU-E: unit not given here
Protocol: CFC assays (colony-forming unit-granulocyte monocyte), burst-forming unit-erythroid, and CFU-GEMM were performed using MethoCult GF M3434 (Stemcell Technologies)[6]. […] Recombinant mouse SCF, Flt3 ligand, and TPO were purchased from R&D Systems. For competitive repopulation assays, BM cells were isolated from donor 10–12-week-old female CD45.2^+ mice. Recipient 10-week-old female CD45.1^+ B6.SJL mice were irradiated with 950 cGy TBI using a Cs137 irradiator and donor BM cells were administered via tail vein injection along with a competing dose of 1 × 10^5 non-irradiated host BM cells. Multilineage donor hematopoietic cell engraftment was measured in the PB by flow cytometry.

BCL-XL in BM KSL cells = assay: BCL-XL protein intracellular flow cytometry of BM KSL cells; type: cell-based, mouse; conditions: BM KSL cells, 24 hours following 300 cGy, 43 ng/ml BVD523
Protocol: (§1) Intracellular flow cytometric analysis was performed on irradiated (300 cGy) or non-irradiated, sorted KSL cells after treatment with 1 μg/mL DJ001 or control (equal volumes of DMSO) for 24 h. At 24 h after irradiation, cells were fixed with 4% PFA for 10 min, followed by permeabilization using 0.25% saponin in PBS. Cells were washed again and stained with antibody at the recommended concentrations for 30 min at RT. Intracellular antibodies and phospho-flow antibodies used were as follows: FITC-conjugated anti-BCL-XL (Abcam, #26148, 1:100), active RAC1-GTP antibody (NewEast Biosciences, #26903, 1:100) and anti-PAK1 (phospho S144) + PAK2 (phospho S141) + PAK3 (phospho S154) antibody (Abcam, #40795, 1:100), and FITC-conjugated goat anti-rabbit IgG H&L (Abcam, #97050, 1:200).

BM KSL cells [2] = assay: Cell cycle analysis (Ki67/7AAD) of BM KSL cells; type: cell-based, mouse; conditions: BM KSL cells following irradiation
Protocol: (§2) Eight- to ten-week-old female C57BL/6 mice were irradiated with 500 cGy TBI followed by subcutaneous injections of 5 mg/kg DJ001 or vehicle, or 5 mg/kg DJ001 plus 40 mg/kg EHT1864. Twenty four hours after irradiation, mice were killed to collect BM cells for Annexin V apoptosis analysis. BM cells were stained with APC-Cy7-conjugated anti-mouse Sca1 (BD Biosciences, #560654, 1:100), PE-conjugated anti-ckit (BD Biosciences, #553355, 1:100), and V450 lineage cocktail (BD Biosciences, #561301, 1:10) antibodies for 30 min at 4 °C. Cells were then resuspended in 1× Annexin V binding buffer and then stained with FITC-conjugated anti-Annexin V antibody (BD Biosciences, #556547,1:50) and 7AAD antibody (BD Biosciences, #559925, 1:40)[68]. For in vitro human BM cell apoptosis assays, isolated human BM CD34^+ cells were plated into 96-well plates and then irradiated with 300 cGy. Immediately after irradiation, cells were treated with 5 μg/mL DJ001 or vehicle for 24 h and then collected for Annexin V cell apoptosis analysis. For cell cycle analysis, BM KSL cells were irradiated at 300 cGy and then treated with 1 μg/mL DJ001 or vehicle for 36 h. Subsequently, cells were resuspended in 200 μL of PBS, fixed with 1 mL of ice-cold fixation solution (0.25% Saponin, 2.5% PFA, 2% fetal calf serum (FCS) in PBS), and incubated for 30 min on ice. Cells were washed in Saponin buffer (0.25% Saponin, 2% FCS in PBS) and resuspended in 200 μL of Saponin buffer containing 20 μL of FITC-conjugated anti-Ki67 antibody (BD Biosciences, #556026, 1:10) and 1 μL of RNase (Qiagen, #19101, 100 mg/mL). After 30 min of incubation, cells were washed in Saponin buffer and resuspended for flow analysis in 200 μL of Saponin buffer containing 5 μL 7AAD (BD Biosciences, #559925, 1:40).

C57BL/6 mice = assay: Survival study after 750 cGy TBI; type: in vivo, mouse; conditions: 750 cGy, systemic EHT1864
Protocol: For survival studies, 10-week-old female C57BL/6 mice were irradiated with 750 cGy TBI, which is lethal for ~50% of C57BL/6 mice by day + 30 (LD50/30), using a Shepherd Cesium-137 irradiator. Twenty four hours post irradiation, mice were administered daily subcutaneous injections of 5 mg/kg DJ001 or DJ009, or vehicle in a volume of 100 μL for 10 days. DJ001 or DJ009 injections were prepared in PBS, 0.5% Tween 80, and 10% DMSO. Corresponding vehicle injections contained PBS, 10% DMSO, and 0.5% Tween 80. PB complete blood counts were measured using a Hemavet 950 instrument (Drew Scientific) at day + 10 post irradiation. For hematopoietic analysis, BM cells were collected at day + 10 post irradiation. To study whether DJ001 increased survival rates through activation of RAC signaling, the RAC inhibitor, EHT1864 (Selleckchem), was dissolved in PBS and administered intraperitoneally, 40 mg/kg every other day, to 750 cGy-irradiated mice until day + 10.

BM KSL cells [3] = assay: Annexin V/7AAD apoptosis assay of BM KSL cells from mice 24 h post 500 cGy TBI; type: in vivo, mouse
Protocol: as §2

p-PAK1 in BM KSL cells = assay: p-PAK1 phospho-flow cytometry of BM KSL cells; type: cell-based, mouse; conditions: BM KSL cells, DJ001 + 6 μg/mL EHT1864
Protocol: as §1

catalytic domain of PTPσ = tested on: catalytic domain of PTPσ; set-up: method as in PMID 23185579; conditions: cited from earlier work

CC(C)Nc1cc(-c2c[nH]c(C(=O)N[C@H](CO)c3cccc(Cl)c3)c2)c(Cl)cn1 [BVD523, reference compound]
effect on hematopoietic progenitor cell recovery following irradiation (BM KSL cells [1]; DJ001 + 43 ng/mL BVD523, 300 cGy, day +3): abrogated hematopoietic progenitor cell recovery | effect on DJ001-mediated increase in BCL-XL protein levels (BCL-XL in BM KSL cells): blocked DJ001-mediated increase in BCL-XL protein levels

O=c1cc(CN2CCOCC2)occ1OCCCCCSc1ccnc2cc(C(F)(F)F)ccc12 [EHT1864, reference compound]
effect on DJ001-mediated induction of cell cycle progression (BM KSL cells [2]): suppressed DJ001-mediated induction of cell cycle progression | effect on DJ001-mediated increase in survival of irradiated mice (C57BL/6 mice): completely blocked DJ001-mediated increase in survival | effect on DJ001-mediated CFC generation (BM KSL cells [1]; BM KSL cells irradiated with 300 cGy in vitro, 6 µg/ml EHT1864): inhibited DJ001-mediated CFC generation | BFU-E (BM KSL cells [1]; Supplementary Figure 7d): 1 and 2 | CFU-GM (BM KSL cells [1]; Supplementary Figure 7d): 9 and 6 and 11 and 10 and 12 | Figure 3e: Annexin V/7AAD apoptosis of BM KSL cells (BM KSL cells [3]; 24 h post 500 cGy TBI, individual mice): 24.85 and 19.31 and 21.21 and 22.28 | effect on DJ001-mediated anti-apoptotic effects on BM KSL cells (BM KSL cells [3]; irradiated mice): abrogated DJ001-mediated anti-apoptotic effects | effect on DJ001-mediated phosphorylation of PAK1 (p-PAK1 in BM KSL cells): abrogated DJ001-mediated phosphorylation of PAK1

COc1ccc2c(c1)/C(=C/c1cnc[nH]1)C(=O)N2 [SU9516, reference compound]
effect on DJ001-mediated induction of cell cycle progression (BM KSL cells [2]): suppressed DJ001-mediated induction of cell cycle progression

O=C(/C=C\Nc1cc([N+](=O)[O-])ccc1O)c1ccc(Cl)c(Cl)c1 [compound 5075, reference compound]
reported properties against the catalytic domain of PTPσ (catalytic domain of PTPσ): binding and inhibitory properties
